Legend:
[1] = tested on: rat aortic smooth muscle cells; assay: serum-stimulated proliferation, 3H-thymidine incorporation into DNA; type: cell-based; details: 10% fetal calf serum stimulated
Protocol: (§1) Inhibition of serum-stimulated proliferation of rat aortic smooth muscle cells is determined as follows: The antiproliferative effect of potential drug is determined by measuring the incorporation of ^3 H-thymidine into cellular DNA. Exposure of quiescent vascular smooth muscle cell to serum, which contains many growth factors, results in a large increase in cellular proliferation as measured by ^3 H-thymidine incorported into DNA. The inhibitory effect of potential drug on serum-stimulated proliferation is tested by adding a drug before the addition of serum and determining if the serum-stimulated proliferation is reduced. […] In that event, antagonizing of the antiproliferative effect of idazoxan is determined by adding antagonist before the addition of idazoxan to serum-stimulated vascular smooth muscle cells.
In this experiment, the proliferation of vascular smooth muscle cells was determined by measuring DNA replication. The incorporation of ^3 H-thymidine into DNA was used to measure the replication of DNA as described in Erlinge, D., et al, Am. J. Physiol. 265, H1089-H1097 (1993) which is incorporated herein by reference.
(§2) Rat aortic smooth muscle cells prepared as described in In Vitro Example 1 were plated into 24-well plates at a density of about 30,000 cells/well in 10% fetal calf serum (FCS). After 48 hours, the cells were starved in 0.5% FCS for another 48 hours to decrease proliferation and induce quiescence. The medium was replaced by serum-free medium 24 hours prior to addition of drug (drugs are described below) and 10% fetal calf serum or only 10% fetal calf serum in the case of the control. The cells were then incubated for 24 hours and ^3 H-thymidine (1 μCi/well) was added at hour 20. At the end of the 24 hour period, the medium was aspirated and the cells were washed three times with phosphate-buffered saline and twice with ice-cold trichloroacetic acid. Fixed cells were then solubilized in 0.2M NaOH and sonicated. A 100 μl aliquot was used for scintillation counting.

[2] = tested on: rat aortic smooth muscle cells; assay: antagonism of the antiproliferative effect in serum-stimulated smooth muscle cells; type: cell-based; details: Rattus norvegicus; in presence of tolazoline 100 μM; read-out: IC50 of idazoxan in presence of tolazoline
Protocol: as §1
as §2, with “After” for “Rat aortic smooth muscle cells prepared as described in In Vitro Example 1 were plated into 24-well plates at a density of about 30,000 cells/well in 10% fetal calf serum (FCS). After”
To test this, the effect of tolazoline (100 μM) on the concentration/response curve was determined.

[3] = tested on: human coronary artery smooth muscle cells; assay: 3H-thymidine incorporation in normal human coronary artery smooth muscle cells; type: cell-based
Protocol: In this experiment the antiproliferative action of idazoxan was tested in normal human coronary artery smooth muscle cells (Clonetics Corp.). Proliferation of smooth muscle cells was measured as described above by the incorporation of ^3 H-thymidine into cellular DNA. Following the incubation of semi-confluent smooth muscle cells in serum-free medium for 24 hr, growth is stimulated by either 5% fetal calf serum (FCS) or platelet derived growth factor (PDGF) (10 ng/well) in the presence and absence of various concentrations of idazoxan. […] In Table 4, "DPM" stands for disintegrations per minute which is a measure of the radioactivity incorporated into the cellular DNA by 3H-thymidine.

[4] = tested on: rat carotid artery; assay: balloon angioplasty of rat left common carotid artery; type: in vivo; details: 10 mg/kg/24hr for 7 days, s.c. minipump
Protocol: To determine the actions of idazoxan in inhibiting the proliferation of vascular smooth muscle cells in vivo, we tested the effect of balloon angioplasty in rat carotid artery. Left common carotid artery balloon angioplasty was performed as described by Ohlstein et al, Proc. Natl. Acad. Sci. 90, 6189-6193 (1993). Rats were implanted, subcutaneously, with Alzet minipumps (1 μl/hr delivery rate) containing idazoxan to deliver a dose of 10 mg/kg/24hr for 7 days. Control rats were implanted with minipumps containing sterile saline. Ballon angioplasty of left common carotid artery was performed on fourth day of idazoxan administration and animals were sacrificed 10 days after the surgery. Left and right common carotid arteries were removed, cross-sections (10 μm) were cut in a cryostat and stained with eosin and hematoxylin. Blood vessel layers were quantitated in an imaging system and the ratio of internal and external diameters were calculated.

[5] = Example I: patient with intermittent claudication, iliac artery plaques; type: in vivo, human; details: over 30 days oral; idazoxan 50 and 75 mg/day, UK 14,304 125, naphazoline 125, cirazoline 75, agmatine 900 mg/day
Text: A person presents with progressive symptoms of intermittent claudication in both legs.

[6] = Example II: patient with narrowing of right common carotid artery, balloon angiography; type: in vivo, human; details: idazoxan 50 or 75 mg/day two weeks before and 3 months after balloon angiography; UK 14,304 125, cirazoline 60, naphazoline 125, agmatine 900 mg/day
Protocol: A person presents with a history of intermittent brief episodes of transient monocular blindness in the right eye associated with clumsiness and weakness of the left arm and leg. Angiography indicates substantial narrowing of the right common carotid artery. They are with treated with idazoxan at a dosage of 50 or 75 mg/day for two weeks preceding balloon angiography and for 3 months thereafter.

[7] = Example III: patient with coronary artery disease, angioplasty; type: in vivo, human
Protocol: A person presents with the onset of chest pain on exertion. […] Ten days before angioplasty, the patient is begun on 75 or 100 mg/day of idazoxan. […] Treatment with 50 mg/day idazoxan is continued for 3 months.

[8] = Example IV: patient with fibromuscular dysplasia of the renal artery, angioplasty; type: in vivo, human

With `c1ccc2c(c1)OCC(C1=NCCN1)O2` (stereo not shown) [Idazoxan, 2-[2-(1,4-benzodioxanyl)]-2-imidazoline] the “inhibition of vascular smooth muscle cell proliferation, in words” value [1] was “potently inhibited”, the IC50 ([1]; Rattus norvegicus, 24 h, read-out: 3H-thymidine incorporated (IC50)) was 4.5 ± 1.4 µM and the IC50 [2] was 55 µM. The 3H-thymidine incorporated ([3]; FCS (5%) + idazoxan 1 μM) was 5540 ± 430 DPM/well, the 3H-thymidine incorporated ([3]; FCS (5%) + idazoxan 10 μM) was 2370 ± 230 DPM/well and the 3H-thymidine incorporated ([3]; FCS (5%) + idazoxan 100 μM) was 430 ± 98 DPM/well. It also gave a 3H-thymidine incorporated ([3]; PDGF (10 ng/well) + idazoxan 1 μM) of 3220 ± 180 DPM/well, a 3H-thymidine incorporated ([3]; PDGF (10 ng/well) + idazoxan 10 μM) of 1890 ± 210 DPM/well and a 3H-thymidine incorporated ([3]; PDGF (10 ng/well) + idazoxan 100 μM) of 340 ± 60 DPM/well. For the same compound, the “incorporation of 3H-thymidine, in words” value ([3]; stimulated by FCS or PDGF) was “inhibited the incorporation of ^3 H-thymidine”, the “internal/external diameter ratio, non-injured right common carotid artery vs control” value [4] was “no significant difference” and the “internal/external diameter ratio of lesion side as percent of control side” value ([4]; 10 days after surgery, saline control 21.9 ±3.3) was 6.5 ±3.4%. The “lesion side as percent of control side vs saline, in words” value ([4]; injured left common carotid artery) was “significant decrease”, the “symptoms of intermittent claudication” value [5] was “stabilization of symptoms” and the “symptoms and restenosis of the vessel” value [6] was “Symptoms disappear without evidence of restenosis of the vessel”. The “symptoms / restenosis after angioplasty” value ([7]; idazoxan 50 mg/day continued for 3 months, substitutes, dose not stated) was “remains symptomless without evidence of restenosis”, the chest pain ([7]; idazoxan 75 or 100 mg/day from ten days before angioplasty) was “no further chest pain” and the blood pressure ([8]; idazoxan 75 mg/day for 1 month followed by angioplasty with continued treatment) was “rapid fall of blood pressure to normal”. For the same compound, the “re-elevation of pressure / restenosis of the renal artery” value ([8]; idazoxan 75 mg/day, UK 14,304 60, naphazoline 125, cirazoline 60, agmatine 900 mg/day) was “without evidence months later on re-elevation of pressure or on follow up, of restenosis of the renal artery”.
